# Earlier results in patent US9387169B2, “Rapamycin powders for pulmonary delivery” (Civitas Therapeutics, Inc., priority 2014, dated 2016).
# Settings: amorphous form
compound,measurement,value
"CO[C@H]1C[C@@H]2CC[C@@H](C)[C@@](O)(O2)C(=O)C(=O)N2CCCC[C@H]2C(=O)O[C@H]([C@H](C)C[C@@H]2CC[C@@H](O)[C@H](OC)C2)CC(=O)[C@H](C)/C=C(\C)[C@@H](O)[C@@H](OC)C(=O)[C@H](C)C[C@H](C)/C=C/C=C/C=C/1C [amorphous rapamycin, rapamycin]",chemical stability,extremely chemically unstable
